Among the data in US11149040B2, “Fused triazole agonists of the APJ receptor” (AMGEN INC., priority 2017, dated 2021) are EC50 values, retold here.

Structures are written as SMILES.

What is called EC50 is the concentration giving half of the maximal effect.

In the experiment the target is human APJ receptor (Homo sapiens (Human), UniProt P35414). Briefly: [35S]GTPγS binding assay on membranes from CHO cells stably expressing human APJ receptor. It counts as biochemical. The following applies: read-out: Activity hAPJ SPA EC50 IP. The method, then: [^35S]GTPγS Binding The human APJ receptor was cloned by polymerase chain reaction and the gene encoding the receptor was subcloned in pFLAG-CMV™-3 expression vector (Sigma, Saint Louis, Mo. USA) in-house at Amgen. A GTPγS binding assay was performed on membranes prepared from CHO cells stably expressing human APJ receptor. The optimum experimental conditions for the concentrations of GDP, MgCl2, and NaCl in the assay buffer were initially determined. […] Incubation was at RT for 90 min and the microplate was read using a ViewLux™ ultra HTS Microplate Imager (PerkinElmer, Inc.). All the results presented are means of several independent experiments and analyzed by non-linear regression methods using the commercially available program Prism (GraphPad, San Diego, Calif.) providing the EC50 values detailed in Table 13.
Sequence of human APJ receptor (P35414 whole entry): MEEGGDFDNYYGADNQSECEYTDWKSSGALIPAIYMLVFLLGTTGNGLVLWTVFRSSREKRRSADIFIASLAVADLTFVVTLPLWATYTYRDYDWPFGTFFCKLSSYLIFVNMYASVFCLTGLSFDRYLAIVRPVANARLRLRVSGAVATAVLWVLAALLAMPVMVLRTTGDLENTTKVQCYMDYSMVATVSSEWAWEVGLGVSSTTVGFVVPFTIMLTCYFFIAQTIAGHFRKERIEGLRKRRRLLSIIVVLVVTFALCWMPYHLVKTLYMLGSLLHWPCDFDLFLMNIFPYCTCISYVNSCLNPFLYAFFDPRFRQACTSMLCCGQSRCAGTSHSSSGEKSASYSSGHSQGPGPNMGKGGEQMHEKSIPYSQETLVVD
Background: GTPγS resists hydrolysis and so accumulates on activated G proteins.
Regarding `Cc1cnc([C@H](OC(C)C)[C@H](C)S(=O)(=O)Nc2nnc3n2[C@H](CO)COc2cccnc2-3)nc1` (mixture of isomers) [Example 58.0, (1S,2S)-N-((R)-5-(hydroxymethyl)-5,6-dihydropyrido[2,3-f][1,2,4]triazolo[4,3-d][1,4]oxazepin-3-yl)-1-isopropoxy-1-(5-methylpyrimidin-2-yl)propane-2-sulfonamide and (1S,2S)-N-((S)-5-(hydroxymethyl)-5,6-dihydropyrido[2,3-f][1,2,4]triazolo[4,3-d][1,4]oxazepin-3-yl)-1-isopropoxy-1-(5-methylpyrimidin-2-yl)propane-2-sulfonamide], the EC50 was 2100 nM.

Regarding `COC[C@@H]1COc2ncccc2-c2nnc(NS(=O)(=O)[C@@H](C)[C@H](OC(C)C)c3ncc(C)cn3)n21` (mixture of isomers) [Example 59.0, (1R,2S)-N-((5R)-5-(methoxymethyl)-5,6-dihydropyrido[3,2-f][1,2,4]triazolo[4,3-d][1,4]oxazepin-3-yl)-1-(5-methyl-2-pyrimidinyl)-1-(2-propanyloxy)-2-propanesulfonamide and (1R,2S)-N-((5S)-5-(methoxymethyl)-5,6-dihydropyrido[3,2-f][1,2,4]triazolo[4,3-d][1,4]oxazepin-3-yl)-1-(5-methyl-2-pyrimidinyl)-1-(2-propanyloxy)-2-propanesulfonamide], the EC50 amounted to 1200 nM.

As for `COC[C@@H]1COc2cccnc2-c2nnc(NS(=O)(=O)[C@@H](C)[C@@H](OC(C)C)c3ncc(C)cn3)n21` (mixture of isomers) [Example 61.0, (1S,2S)-N-((5R)-5-(methoxymethyl)-5,6-dihydropyrido[2,3-f][1,2,4]triazolo[4,3-d][1,4]oxazepin-3-yl)-1-(5-methyl-2-pyrimidinyl)-1-(2-propanyloxy)-2-propanesulfonamide and (1S,2S)-N-((5S)-5-(methoxymethyl)-5,6-dihydropyrido[2,3-f][1,2,4]triazolo[4,3-d][1,4]oxazepin-3-yl)-1-(5-methyl-2-pyrimidinyl)-1-(2-propanyloxy)-2-propanesulfonamide], the EC50 turned out to be 440 nM.

In the case of `Cc1cnc([C@H](OC(C)C)[C@H](C)S(=O)(=O)Nc2nnc3n2[C@H](COC(C)C)COc2ccc(F)cc2-3)nc1` (mixture of isomers) [Example 62.0, (1S,2S)-N-((R)-10-fluoro-5-(isopropoxymethyl)-5,6-dihydrobenzo[f][1,2,4]triazolo[4,3-d][1,4]oxazepin-3-yl)-1-isopropoxy-1-(5-methylpyrimidin-2-yl)propane-2-sulfonamide and (1S,2S)-N-((S)-10-fluoro-5-(isopropoxymethyl)-5,6-dihydrobenzo[f][1,2,4]triazolo[4,3-d][1,4]oxazepin-3-yl)-1-isopropoxy-1-(5-methylpyrimidin-2-yl)propane-2-sulfonamide], the EC50 was 21 nM.

On to `COC[C@@H]1COc2cnccc2-c2nnc(NS(=O)(=O)[C@@H](C)[C@@H](OC(C)C)c3ncc(C)cn3)n21` (mixture of isomers) [Example 65.0, (1S,2S)-N-((5R)-5-(methoxymethyl)-5,6-dihydropyrido[4,3-f][1,2,4]triazolo[4,3-d][1,4]oxazepin-3-yl)-1-(5-methyl-2-pyrimidinyl)-1-(2-propanyloxy)-2-propanesulfonamide and (1S,2S)-N-((5S)-5-(methoxymethyl)-5,6-dihydropyrido[4,3-f][1,2,4]triazolo[4,3-d][1,4]oxazepin-3-yl)-1-(5-methyl-2-pyrimidinyl)-1-(2-propanyloxy)-2-propanesulfonamide], for which the EC50 came out at 1200 nM.

Consider `COC[C@@H]1COc2ccccc2-c2nnc(NS(=O)(=O)[C@@H](C)[C@H](C)c3ncc(OC)cn3)n21` (single isomer, unassigned) [Example 1.0, (2S,3R)-N-((5R)-5-(methoxymethyl)-5,6-dihydro[1,2,4]triazolo[4,3-d][1,4]benzoxazepin-3-yl)-3-(5-methoxy-2-pyrimidinyl)-2-butanesulfonamide or (2S,3R)-N-((5S)-5-(methoxymethyl)-5,6-dihydro[1,2,4]triazolo[4,3-d][1,4]benzoxazepin-3-yl)-3-(5-methoxy-2-pyrimidinyl)-2-butanesulfonamide], for which the EC50 turned out to be 120 nM.

Regarding `COC[C@@H]1COc2ccccc2-c2nnc(NS(=O)(=O)[C@@H](C)[C@H](C)c3ncc(OC)cn3)n21` (single isomer, unassigned) [Example 2.0, (2S,3R)-N-((5R)-5-(methoxymethyl)-5,6-dihydro[1,2,4]triazolo[4,3-d][1,4]benzoxazepin-3-yl)-3-(5-methoxy-2-pyrimidinyl)-2-butanesulfonamide or (2S,3R)-N-((5S)-5-(methoxymethyl)-5,6-dihydro[1,2,4]triazolo[4,3-d][1,4]benzoxazepin-3-yl)-3-(5-methoxy-2-pyrimidinyl)-2-butanesulfonamide], the EC50 worked out at 770 nM.

Consider `COC[C@@H]1COc2ccccc2-c2nnc(NS(=O)(=O)[C@@H](C)[C@@H](OC(C)C)c3ncc(C)cn3)n21` (single isomer, unassigned) [Example 4.0, (1S,2S)-N-((5R)-5-(methoxymethyl)-5,6-dihydro[1,2,4]triazolo[4,3-d][1,4]benzoxazepin-3-yl)-1-(5-methyl-2-pyrimidinyl)-1-(2-propanyloxy)-2-propanesulfonamide or (1S,2S)-N-((5S)-5-(methoxymethyl)-5,6-dihydro[1,2,4]triazolo[4,3-d][1,4]benzoxazepin-3-yl)-1-(5-methyl-2-pyrimidinyl)-1-(2-propanyloxy)-2-propanesulfonamide], for which the concentration giving a half-maximal response (EC50) amounted to 17 nM.

Consider `COC[C@@H]1COc2ccccc2-c2nnc(NS(=O)(=O)[C@@H](C)[C@@H](OC(C)C)c3ncc(C)cn3)n21` (single isomer, unassigned) [Example 5.0, (1S,2S)-N-((5R)-5-(methoxymethyl)-5,6-dihydro[1,2,4]triazolo[4,3-d][1,4]benzoxazepin-3-yl)-1-(5-methyl-2-pyrimidinyl)-1-(2-propanyloxy)-2-propanesulfonamide or (1S,2S)-N-((5S)-5-(methoxymethyl)-5,6-dihydro[1,2,4]triazolo[4,3-d][1,4]benzoxazepin-3-yl)-1-(5-methyl-2-pyrimidinyl)-1-(2-propanyloxy)-2-propanesulfonamide], for which the EC50 was determined as 130 nM.

Turning to `COC[C@@H]1COc2ccc(OC)nc2-c2nnc(NS(=O)(=O)[C@@H](C)[C@H](C)c3ncc(OC)cn3)n21` (single isomer, unassigned) [Example 6.0, (2S,3R)-N-((5R)-10-methoxy-5-(methoxymethyl)-5,6-dihydropyrido[2,3-f][1,2,4]triazolo[4,3-d][1,4]oxazepin-3-yl)-3-(5-methoxy-2-pyrimidinyl)-2-butanesulfonamide or (2S,3R)-N-((5S)-10-methoxy-5-(methoxymethyl)-5,6-dihydropyrido[2,3-f][1,2,4]triazolo[4,3-d][1,4]oxazepin-3-yl)-3-(5-methoxy-2-pyrimidinyl)-2-butanesulfonamide], the EC50 was 2300 nM.

Take `COC[C@@H]1COc2ccc(OC)nc2-c2nnc(NS(=O)(=O)[C@@H](C)[C@H](C)c3ncc(OC)cn3)n21` (single isomer, unassigned) [Example 7.0, (2S,3R)-N-((5R)-10-methoxy-5-(methoxymethyl)-5,6-dihydropyrido[2,3-f][1,2,4]triazolo[4,3-d][1,4]oxazepin-3-yl)-3-(5-methoxy-2-pyrimidinyl)-2-butanesulfonamide or (2S,3R)-N-((5S)-10-methoxy-5-(methoxymethyl)-5,6-dihydropyrido[2,3-f][1,2,4]traizolo[4,3-d][1,4]oxazepin-3-yl)-3-(5-methoxy-2-pyrimidinyl)-2-butanesulfonamide]: the 50% effective concentration (EC50) came out at 250 nM.

As to `COC[C@@H]1COc2c(OC)cccc2-c2nnc(NS(=O)(=O)[C@@H](C)[C@H](C)c3ncc(OC)cn3)n21` (single isomer, unassigned) [Example 8.0, (2S,3R)-N-((5R)-8-methoxy-5-(methoxymethyl)-5,6-dihydro[1,2,4]triazolo[4,3-d][1,4]benzoxazepin-3-yl)-3-(5-methoxy-2-pyrimidinyl)-2-butanesulfonamide or (2S,3R)-N-((5S)-8-methoxy-5-(methoxymethyl)-5,6-dihydro[1,2,4]triazolo[4,3-d][1,4]benzoxazepin-3-yl)-3-(5-methoxy-2-pyrimidinyl)-2-butanesulfonamide], the EC50 was found to be 270 nM.

Consider `COC[C@@H]1COc2c(OC)cccc2-c2nnc(NS(=O)(=O)[C@@H](C)[C@H](C)c3ncc(OC)cn3)n21` (single isomer, unassigned) [Example 9.0, (2S,3R)-N-((5R)-8-methoxy-5-(methoxymethyl)-5,6-dihydro[1,2,4]triazolo[4,3-d][1,4]benzoxazepin-3-yl)-3-(5-methoxy-2-pyrimidinyl)-2-butanesulfonamide or (2S,3R)-N-((5S)-8-methoxy-5-(methoxymethyl)-5,6-dihydro[1,2,4]triazolo[4,3-d][1,4]benzoxazepin-3-yl)-3-(5-methoxy-2-pyrimidinyl)-2-butanesulfonamide], for which the EC50 was 1600 nM.

Take `COC[C@@H]1COc2ccc(OC)nc2-c2nnc(NS(=O)(=O)[C@@H](C)[C@H](C)c3ncc(C)cn3)n21` (single isomer, unassigned) [Example 12.0, (2S,3R)-N-((5R)-10-methoxy-5-(methoxymethyl)-5,6-dihydropyrido[2,3-f][1,2,4]triazolo[4,3-d][1,4]oxazepin-3-yl)-3-(5-methyl-2-pyrimidinyl)-2-butanesulfonamide or (2S,3R)-N-((5S)-10-methoxy-5-(methoxymethyl)-5,6-dihydropyrido[2,3-f][1,2,4]triazolo[4,3-d][1,4]oxazepin-3-yl)-3-(5-methyl-2-pyrimidinyl)-2-butanesulfonamide]: the EC50 amounted to 1200 nM.
